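Method: 48-hour compound exposure of cells in 96-well plates, five concentrations, linear interpolation of endpoints. Here, GI50 denotes the concentration required for 50% inhibition of growth.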 Activity calls are given as the source filed them. No stated cut-off is given here; in the data, active = GI50 up to about 1.1 µM and inactive = higher.
Assays:
Assay in all cases: NCI tumour cell line growth inhibition, 48 h
[1] = tested on: UACC-62
[2] = tested on: CCRF-CEM
[3] = tested on: SNB-78
[4] = tested on: M14
[5] = tested on: NCI-H23
[6] = tested on: RXF 393
[7] = tested on: HOP-92
[8] = tested on: HL-60
[9] = tested on: LXFL 529
[10] = tested on: DLD-1
[11] = tested on: UO-31
[12] = tested on: SNB-75
[13] = tested on: RPMI-8226
[14] = tested on: IGROV-1
[15] = tested on: SN12C
[16] = tested on: U-251
[17] = tested on: MOLT-4
[18] = tested on: HT-29
[19] = tested on: SNB-19
[20] = tested on: KM12
[21] = tested on: 786-0
[22] = tested on: CAKI-1
[23] = tested on: NCI-H460
[24] = tested on: NCI-H226
[25] = tested on: XF498
[26] = tested on: SK-MEL-28
[27] = tested on: SF-268
[28] = tested on: UACC-257
[29] = tested on: HOP-62
[30] = tested on: NCI-H522
[31] = tested on: SK-OV-3
[32] = tested on: HCT-116
[33] = tested on: HCT-15
[34] = tested on: K562
[35] = tested on: Malme-3M
[36] = tested on: SF-295
[37] = tested on: OVCAR-4
[38] = tested on: A498
[39] = tested on: LOX IMVI
[40] = tested on: EKVX
[41] = tested on: OVCAR-8
[42] = tested on: SK-MEL-2
[43] = tested on: ACHN
[44] = tested on: HOP-18
[45] = tested on: SF-539
[46] = tested on: KM-20L2
[47] = tested on: DMS-273
[48] = tested on: TK-10
[49] = tested on: RXF 631
[50] = tested on: COLO 205
[51] = tested on: A549
[52] = tested on: M19-MEL
[53] = tested on: SK-MEL-5
[54] = tested on: OVCAR-5
[55] = tested on: SR
[56] = tested on: SW-620
[57] = tested on: OVCAR-3
[58] = tested on: HCC 2998

Measured: GI50

CC(C)c1cccc(C(C)C)c1NC(=O)C(=O)C1SC(=S)NC1=O (centres undefined)
inactive: [1] > 100 µM | [2] > 100 µM | [3] > 100 µM | [4] > 100 µM | [5] > 100 µM | [6] > 100 µM | [7] > 100 µM | [8] > 100 µM | [9] > 100 µM | [10] > 100 µM | [11] > 100 µM | [12] > 100 µM | [13] > 100 µM | [14] > 100 µM | [15] > 100 µM | [16] > 100 µM | [17] > 100 µM | [18] > 100 µM | [19] > 100 µM | [20] > 100 µM | [21] > 100 µM | [22] > 100 µM | [23] > 100 µM | [24] > 100 µM | [25] > 100 µM | [26] > 100 µM | [27] > 100 µM | [28] > 100 µM | [29] > 100 µM | [30] > 100 µM | [31] > 100 µM | [32] > 100 µM | [34] > 100 µM | [35] > 100 µM | [36] > 100 µM | [37] > 100 µM | [38] > 100 µM | [39] > 100 µM | [40] > 100 µM | [41] > 100 µM | [42] > 100 µM | [43] > 100 µM | [44] > 100 µM | [45] > 100 µM | [46] > 100 µM | [47] > 100 µM | [48] > 100 µM | [49] > 100 µM | [50] > 100 µM | [51] > 100 µM | [52] > 100 µM | [53] > 100 µM | [54] > 100 µM | [55] > 100 µM | [56] > 100 µM
> 100 µM: [33]

O=c1c2cc(Br)ccc2nc(CCl)n1-c1ccc(O)c([N+](=O)[O-])c1
inactive: [1] 26.6 µM | [2] 22.4 µM | [3] 22.9 µM | [4] 22.3 µM | [5] 16.7 µM | [57] 18.2 µM | [6] 12.9 µM | [7] 29.2 µM | [8] 23.2 µM | [9] 20.9 µM | [10] 17.7 µM | [11] 15.5 µM | [12] 20.8 µM | [13] 25 µM | [14] 24 µM | [15] 18.8 µM | [16] 38.9 µM | [17] 23.1 µM | [18] 27.7 µM | [20] 19 µM | [21] 16.1 µM | [22] 21.7 µM | [23] 34.1 µM | [24] 14.5 µM | [25] 15.4 µM | [26] 17.6 µM | [27] 20.8 µM | [28] 19.1 µM | [29] 20.9 µM | [30] 18.8 µM | [31] 37.8 µM | [34] 22.4 µM | [35] 17.5 µM | [36] 16.3 µM | [37] 18.7 µM | [38] 20.1 µM | [39] 19 µM | [40] 17.5 µM | [41] 19.9 µM | [42] 16 µM | [43] 26.4 µM | [45] 19.2 µM | [58] 19.9 µM | [46] 33 µM | [48] 18.7 µM | [49] > 10 µM | [50] 20.3 µM | [51] 22.4 µM | [52] 19.8 µM | [53] 15.9 µM | [54] 63.5 µM | [56] 19.2 µM
19.7 µM: [33]

Reference: ChEMBL document CHEMBL1201862, “PubChem BioAssay data set” (2004)
